Experimental data taken from patent publication US20240132431A1, “METHOD FOR ALKYLATING ACIDIC FUNCTIONAL GROUP” (Chugai Seiyaku Kabushiki Kaisha, priority 2021, published 2024).
Each block holds one compound with its values, some of them ahead of it.

Biological target: T1, Bcl-2 protein (Recombinant Human Bcl-2 Protein) (Homo sapiens, UniProt P10415)
T1 construct: purchased Novus NBP2-34889
Test: Binding evaluation of mixture library compounds to Bcl-2 using AS-MS (affinity selection mass spectrometry)
Conditions: for ASMS ratio (%) n = 1 / ASMS ratio (%) n = 2: ASMS Ratio(%)=(A−C)/B×100; for ASMS ratio (%) n = 1: replicate n = 1; for ASMS ratio (%) n = 2: replicate n = 2
Outline: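 ASMS Ratio (%) was calculated as (A−C)/B×100, where A is the protein sample after SEC, B the protein-free sample without SEC and C the protein-free sample after SEC. Each compound was at […] in a 1200-member pool with 20 μM Bcl-2, incubated 1 h at 23° C.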

[1] = AS-MS on the mixture of 1200 library compounds
[2] = AS-MS, mixture of 1200 compounds, Bcl-2

T1 sequence (P10415 whole entry): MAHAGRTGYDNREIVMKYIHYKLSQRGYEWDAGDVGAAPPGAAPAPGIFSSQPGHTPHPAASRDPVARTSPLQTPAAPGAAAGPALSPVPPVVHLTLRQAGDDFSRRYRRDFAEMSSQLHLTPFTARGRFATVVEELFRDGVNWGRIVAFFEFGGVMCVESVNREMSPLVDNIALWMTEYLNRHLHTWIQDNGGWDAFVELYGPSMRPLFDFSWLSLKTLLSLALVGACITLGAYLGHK

Compound: CCOc1cccc(-c2cc(CN3CCN(c4ccc(C(=O)Nc5ccc(OC)cc5)cc4)CC3)cc(OCC)c2)c1 [B1O055-01]
- ASMS ratio (%) n = 1 [1]: 3.0%
- ASMS ratio (%) n = 2 [1]: −4.2%

- ASMS ratio (%) n = 1 (AS-MS, mixture library, Bcl-2): 0.0%
- ASMS ratio (%) n = 2 (AS-MS, mixture library, Bcl-2): 0.0%
Compound: CCOc1cncc(-c2ccccc2CCC(=O)N2CCN(c3ccc(C(=O)NS(=O)(=O)c4ccc(NCCSc5ccccc5)c([N+](=O)[O-])c4)cc3)CC2)c1 [B2Q034-01, 4-[4-[3-[2-(5-Ethoxypyridin-3-yl)phenyl]propanoyl]piperazin-1-yl]-N-[3-nitro-4-(2-phenylsulfanylethylamino)phenyl]sulfonylbenzamide]

- ASMS ratio (%) n = 1 (AS-MS, mixture library, Bcl-2): 9.7%
- ASMS ratio (%) n = 2 (AS-MS, mixture library, Bcl-2): 0.4%
Compound: CCOc1cccc(-c2ccc(C(C)N3CCN(c4ccc(C(=O)NS(=O)(=O)CC56CC7CC(CC(C7)C5)C6)cc4)CC3)cc2)c1 (centres unmarked) [B2A097-01, N-(1-Adamantylmethylsulfonyl)-4-[4-[1-[4-(3-ethoxyphenyl)phenyl]ethyl]piperazin-1-yl]benzamide]

Compound: 4-[4-[3-(3-Ethoxyphenyl)-5-(trifluoromethyl)benzoyl]piperazin-1-yl]-N-propylbenzamide [B1M092-01]
- ASMS ratio (%) n = 2 [1]: 0.0%

- ASMS ratio (%) n = 1 (AS-MS, mixture library, Bcl-2): 0.0%
- ASMS ratio (%) n = 2 (AS-MS, mixture library, Bcl-2): 0.0%
Compound: CCOc1cccc(-c2ccc(C(=O)N3CCN(c4ccc(C(=O)NS(C)(=O)=O)cc4)CC3)cc2F)c1 [B2I027-01, 4-[4-[4-(3-Ethoxyphenyl)-3-fluorobenzoyl]piperazin-1-yl]-N-methylsulfonylbenzamide]

- ASMS ratio (%) n = 1 [1]: −2.7%
- ASMS ratio (%) n = 2 [1]: −1.9%
Compound: CCOc1cncc(-c2cc(OC)c(CN3CCN(c4ccc(C(=O)N(C)CC56CC7CC(CC(C7)C5)C6)nn4)CC3)c(OC)c2)c1 [B3A086-01, N-(1-Adamantylmethyl)-6-[4-[[4-(5-ethoxypyridin-3-yl)-2,6-dimethoxyphenyl]methyl]piperazin-1-yl]-N-methylpyridazine-3-carboxamide]

- ASMS ratio (%) n = 1 [1]: 3.6%
- ASMS ratio (%) n = 2 [1]: −2.5%
Compound: CCOc1cccc(-c2ccc(C(=O)N3CCN(c4ccc(C(=O)Nc5ccc(OC)cc5)nn4)CC3)cc2F)c1 [B1O005-01, 6-[4-[4-(3-Ethoxyphenyl)-3-fluorobenzoyl]piperazin-1-yl]-N-(4-methoxyphenyl)pyridazine-3-carboxamide]

- ASMS ratio (%) (n = 1): 0.0%
- ASMS ratio (%) (n = 2): 0.0%
Compound: CCOc1cncc(C#Cc2cncc(C(=O)N3CCN(c4ccc(C(=O)NS(=O)(=O)C(C)(C)C)nn4)CC3)c2)c1 [B2L010-01, N-tert-Butylsulfonyl-6-[4-[5-[2-(5-ethoxypyridin-3-yl)ethynyl]pyridine-3-carbonyl]piperazin-1-yl]pyridazine-3-carboxamide]

- ASMS ratio (%) n = 1 [2]: 1.0%
- ASMS ratio (%) n = 2 [2]: −2.6%
Compound: CCOc1cccc(-c2cc(CN3CCN(c4ccc(C(=O)NCC(F)(F)F)cc4)CC3)cc(OC(C)C)c2)c1 [B1K057-01, 4-[4-[[3-(3-Ethoxyphenyl)-5-propan-2-yloxyphenyl]methyl]piperazin-1-yl]-N-(2,2,2-trifluoroethyl)benzamide]

- ASMS ratio (%) n = 1 [1]: 6.3%
- ASMS ratio (%) n = 2 [1]: −2.9%
Compound: CCOc1cncc(-c2ccc(CN3CCN(c4ccc(C(=O)N(C)CC56CC7CC(CC(C7)C5)C6)cc4)CC3)c3ccccc23)c1 [B3A066-01, N-(1-Adamantylmethyl)-4-[4-[[4-(5-ethoxypyridin-3-yl)naphthalen-1-yl]methyl]piperazin-1-yl]-N-methylbenzamide]

- ASMS ratio (%) n = 1 [1]: −0.5%
- ASMS ratio (%) n = 2 [1]: −2.1%
Compound: CCOc1cccc(C#Cc2cc(C(=O)N3CCN(c4ccc(C(=O)N(CC)CC)nn4)CC3)cc(C(F)(F)F)c2)c1 [B4J019-01, 6-[4-[3-[2-(3-Ethoxyphenyl)ethynyl]-5-(trifluoromethyl)benzoyl]piperazin-1-yl]-N,N-diethylpyridazine-3-carboxamide]

- ASMS ratio (%) (n = 1): 0.1%
- ASMS ratio (%) (n = 2): −1.3%
Compound: CCOc1cncc(-c2ccccc2CCC(=O)N2CCN(c3ccc(C(=O)NS(=O)(=O)c4ccc(NCCSc5ccccc5)c(C(F)(F)F)c4)cc3)CC2)c1 [B2R034-01, 4-[4-[3-[2-(5-Ethoxypyridin-3-yl)phenyl]propanoyl]piperazin-1-yl]-N-[4-(2-phenylsulfanylethylamino)-3-(trifluoromethyl)phenyl]sulfonylbenzamide]

- ASMS ratio (%) (n = 1): 1.6%
- ASMS ratio (%) (n = 2): 3.5%
Compound: CCOc1cncc(-c2ccccc2CCC(=O)N2CCN(c3ccc(C(=O)NS(=O)(=O)C(C)(C)C)cc3)CC2)c1 [B2L034-01, N-tert-Butylsulfonyl-4-[4-[3-[2-(5-ethoxypyridin-3-yl)phenyl]propanoyl]piperazin-1-yl]benzamide]

- ASMS ratio (%) n = 1 [1]: −0.4%
- ASMS ratio (%) n = 2 [1]: −4.5%
Compound: CCOc1cccc(-c2ccc(C(=O)N3CCN(c4ccc(C(=O)Nc5ccc(OC)cc5)cc4)CC3)cc2C)c1 [B1O025-01, 4-[4-[4-(3-Ethoxyphenyl)-3-methylbenzoyl]piperazin-1-yl]-N-(4-methoxyphenyl)benzamide]

Compound: 4-[4-[1-[4-(5-Ethoxypyridin-3-yl)-2-fluorophenyl]ethyl]piperazin-1-yl]-N-propylbenzamide [B1M006-01]
- ASMS ratio (%) n = 1 [2]: 0.0%
- ASMS ratio (%) n = 2 [2]: 0.0%

- ASMS ratio (%) n = 1 (AS-MS, mixture library, Bcl-2): 26.1%
- ASMS ratio (%) n = 2 (AS-MS, mixture library, Bcl-2): 19.5%
Compound: CCOc1cncc(C#Cc2cc(C(=O)N3CCN(c4ccc(C(=O)NS(=O)(=O)c5ccc(NCCSc6ccccc6)c([N+](=O)[O-])c5)cc4)CC3)cc(C(F)(F)F)c2)c1 [B2Q042-01, 4-[4-[3-[2-(5-Ethoxypyridin-3-yl)ethynyl]-5-(trifluoromethyl)benzoyl]piperazin-1-yl]-N-[3-nitro-4-(2-phenylsulfanylethylamino)phenyl]sulfonylbenzamide]

- ASMS ratio (%) n = 1 [1]: 4.8%
- ASMS ratio (%) n = 2 [1]: 1.8%
Compound: CCOc1cncc(-c2ccc(CN3CCN(c4ccc(C(=O)Nc5ccc(OC)cc5)nn4)CC3)cc2F)c1 [B1O078-01]

- ASMS ratio (%) (n = 1): 2.6%
- ASMS ratio (%) (n = 2): 0.3%
Compound: CCOc1cncc(-c2ccc(CN3CCN(c4ccc(C(=O)NS(C)(=O)=O)nn4)CC3)c3ccccc23)c1 [B2I092-01, 6-[4-[[4-(5-Ethoxypyridin-3-yl)naphthalen-1-yl]methyl]piperazin-1-yl]-N-methylsulfonylpyridazine-3-carboxamide]

Compound: 6-[4-[[3-Ethoxy-5-(3-ethoxyphenyl)phenyl]methyl]piperazin-1-yl]-N-propylpyridazine-3-carboxamide [B1M010-01]
- ASMS ratio (%) n = 1 [2]: 0.0%
- ASMS ratio (%) n = 2 [2]: 0.0%

- ASMS ratio (%) n = 1 [2]: −0.3%
- ASMS ratio (%) n = 2 [2]: −9.7%
Compound: CCOc1cncc(-c2cc(CN3CCN(c4ccc(C(=O)NCC56CC7CC(CC(C7)C5)C6)cc4)CC3)cc(C(F)(F)F)c2)c1 [B1A062-01, N-(1-Adamantylmethyl)-4-[4-[[3-(5-ethoxypyridin-3-yl)-5-(trifluoromethyl)phenyl]methyl]piperazin-1-yl]benzamide]

Compound: CCOc1cccc(C#Cc2cc(C(=O)N3CCN(c4ccc(C(=O)N(CC)CC)cc4)CC3)cc(C(F)(F)F)c2)c1 [B4J041-01, 4-[4-[3-[2-(3-Ethoxyphenyl)ethynyl]-5-(trifluoromethyl)benzoyl]piperazin-1-yl]-N,N-diethylbenzamide]
- ASMS ratio (%) n = 1 [1]: 2.8%
- ASMS ratio (%) n = 2 [1]: 1.7%

- ASMS ratio (%) (n = 1): 0.0%
Compound: CCOc1cccc(C#Cc2ccccc2C(=O)N2CCN(c3ccc(C(=O)NS(=O)(=O)c4ccc(NCCSc5ccccc5)c(C(F)(F)F)c4)nn3)CC2)c1 [B2R007-01, 6-[4-[2-[2-(3-Ethoxyphenyl)ethynyl]benzoyl]piperazin-1-yl]-N-[4-(2-phenylsulfanylethylamino)-3-(trifluoromethyl)phenyl]sulfonylpyridazine-3-carboxamide]

- ASMS ratio (%) (n = 1): 0.0%
- ASMS ratio (%) (n = 2): 2.8%
Compound: CCOc1cncc(-c2cc(CN3CCN(c4ccc(C(=O)NS(=O)(=O)C(C)(C)C)nn4)CC3)cc(C(F)(F)F)c2)c1 [B2L088-01, N-tert-Butylsulfonyl-6-[4-[[3-(5-ethoxypyridin-3-yl)-5-(trifluoromethyl)phenyl]methyl]piperazin-1-yl]pyridazine-3-carboxamide]

- ASMS ratio (%) n = 1 (AS-MS, mixture library, Bcl-2): 10.3%
- ASMS ratio (%) n = 2 (AS-MS, mixture library, Bcl-2): 0.0%
Compound: CCOc1cccc(-c2cc(CN3CCN(c4ccc(C(=O)NS(=O)(=O)CC56CC7CC(CC(C7)C5)C6)nn4)CC3)cc(OC(C)C)c2)c1 [B2A083-01, N-(1-Adamantylmethylsulfonyl)-6-[4-[[3-(3-ethoxyphenyl)-5-propan-2-yloxyphenyl]methyl]piperazin-1-yl]pyridazine-3-carboxamide]

- ASMS ratio (%) (n = 1): 0.0%
- ASMS ratio (%) (n = 2): −0.4%
Compound: CCOc1cccc(C#Cc2cncc(C(=O)N3CCN(c4ccc(C(=O)NS(=O)(=O)CCC(F)(F)F)nn4)CC3)c2)c1 [B2N009-01, 6-[4-[5-[2-(3-Ethoxyphenyl)ethynyl]pyridine-3-carbonyl]piperazin-1-yl]-N-(3,3,3-trifluoropropylsulfonyl)pyridazine-3-carboxamide]

- ASMS ratio (%) n = 1 (AS-MS, mixture library, Bcl-2): 13.3%
- ASMS ratio (%) n = 2 (AS-MS, mixture library, Bcl-2): 8.9%
Compound: CCOc1cncc(C#Cc2cncc(C(=O)N3CCN(c4ccc(C(=O)NS(=O)(=O)c5ccc(NCCSc6ccccc6)c([N+](=O)[O-])c5)nn4)CC3)c2)c1 [B2Q010-01, 6-[4-[5-[2-(5-Ethoxypyridin-3-yl)ethynyl]pyridine-3-carbonyl]piperazin-1-yl]-N-[3-nitro-4-(2-phenylsulfanylethylamino)phenyl]sulfonylpyridazine-3-carboxamide]
